From article PMC9007901 (European journal of medicinal chemistry, 2022)

Experiments:
[1] = target: T1, hHDAC8 (Homo sapiens, UniProt Q9BY41); assay: HDAC8 activity assay; assay type: biochemical
T1 sequence (Q9BY41 1-377): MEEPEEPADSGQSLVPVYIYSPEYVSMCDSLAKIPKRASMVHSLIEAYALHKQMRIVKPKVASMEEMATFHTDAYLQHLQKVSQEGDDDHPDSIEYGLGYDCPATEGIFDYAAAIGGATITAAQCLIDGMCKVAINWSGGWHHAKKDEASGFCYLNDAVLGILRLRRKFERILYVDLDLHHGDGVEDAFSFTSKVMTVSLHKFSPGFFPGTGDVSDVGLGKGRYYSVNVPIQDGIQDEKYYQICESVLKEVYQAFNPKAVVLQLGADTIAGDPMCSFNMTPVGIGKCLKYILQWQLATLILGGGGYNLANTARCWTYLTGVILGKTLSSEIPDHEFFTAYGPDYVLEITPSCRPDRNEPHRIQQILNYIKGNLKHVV

[2] = target: hHDAC1 (Homo sapiens, UniProt Q13547); assay: recombinant HDAC1 homogenous fluorescence assay
Sequence of hHDAC1 (Q13547 whole entry): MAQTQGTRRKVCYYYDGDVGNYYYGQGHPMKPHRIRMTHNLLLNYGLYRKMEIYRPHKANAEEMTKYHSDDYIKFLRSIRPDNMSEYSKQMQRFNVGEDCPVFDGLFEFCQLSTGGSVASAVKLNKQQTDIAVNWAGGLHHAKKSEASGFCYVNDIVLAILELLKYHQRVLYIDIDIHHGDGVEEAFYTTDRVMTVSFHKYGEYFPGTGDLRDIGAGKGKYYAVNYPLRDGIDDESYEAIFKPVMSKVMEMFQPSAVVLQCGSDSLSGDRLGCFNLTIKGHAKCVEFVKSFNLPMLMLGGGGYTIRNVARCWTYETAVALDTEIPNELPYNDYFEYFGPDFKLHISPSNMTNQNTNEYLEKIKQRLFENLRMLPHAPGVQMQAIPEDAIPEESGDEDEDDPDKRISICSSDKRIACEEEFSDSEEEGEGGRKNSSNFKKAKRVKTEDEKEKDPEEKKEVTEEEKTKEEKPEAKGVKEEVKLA

[3] = target: T2, drHDAC10 (Danio rerio, UniProt F1QCV2); assay: drHDAC10 enzymatic in vitro assay; assay type: biochemical
T2 sequence (F1QCV2 1-675): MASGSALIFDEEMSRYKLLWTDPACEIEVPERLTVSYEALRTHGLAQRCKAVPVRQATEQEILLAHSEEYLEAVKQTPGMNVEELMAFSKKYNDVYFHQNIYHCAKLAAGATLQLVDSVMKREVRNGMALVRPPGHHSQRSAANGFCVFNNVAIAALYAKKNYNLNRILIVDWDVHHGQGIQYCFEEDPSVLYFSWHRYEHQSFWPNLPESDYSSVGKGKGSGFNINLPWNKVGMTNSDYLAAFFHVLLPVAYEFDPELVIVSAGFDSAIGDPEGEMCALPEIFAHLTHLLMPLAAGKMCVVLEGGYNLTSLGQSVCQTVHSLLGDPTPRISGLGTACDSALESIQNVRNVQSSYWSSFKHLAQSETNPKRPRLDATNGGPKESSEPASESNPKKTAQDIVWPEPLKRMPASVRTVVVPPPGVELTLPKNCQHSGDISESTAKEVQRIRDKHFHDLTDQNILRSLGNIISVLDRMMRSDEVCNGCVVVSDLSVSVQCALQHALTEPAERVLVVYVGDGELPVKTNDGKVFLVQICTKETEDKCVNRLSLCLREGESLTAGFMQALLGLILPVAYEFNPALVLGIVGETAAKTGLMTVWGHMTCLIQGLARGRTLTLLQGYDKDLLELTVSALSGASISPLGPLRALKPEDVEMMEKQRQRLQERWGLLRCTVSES

[4] = tested on: HDAC10 and GAPDH levels in MV4–11 cells; assay: Immunoblot for HDAC10 and GAPDH levels; assay type: cell-based; details: 24 h
[5] = tested on: MV4–11 cells; assay: Cyto-ID detection of modulation of autophagy; assay type: cell-based; details: 2–15 μM, 24 h, with 10 μM chloroquine
[6] = tested on: SK-N-BE(2)-C neuroblastoma cells; assay: LysoTracker assay; assay type: cell-based, Human; details: SK-N-BE(2)-C cells, 24 h
[7] = tested on: MV4–11 cells; assay: Annexin-V-FITC / PI flow cytometry; assay type: cell-based; details: 2–15 μM, 24 h
[8] = tested on: acetylated tubulin-α in MV4–11 cells; assay: Immunoblot for acetylated tubulin-α; assay type: cell-based; details: 15 μM, 24 h, did not reach significance
[9] = tested on: acetylated histone H3 in MV4–11 cells; assay: Immunoblot for acetylated histone H3; assay type: cell-based; details: 24 h
[10] = target: T3, hHDAC6 (Homo sapiens, UniProt Q9UBN7); assay: recombinant HDAC6 homogenous fluorescence assay
T3 sequence (Q9UBN7 1-1215): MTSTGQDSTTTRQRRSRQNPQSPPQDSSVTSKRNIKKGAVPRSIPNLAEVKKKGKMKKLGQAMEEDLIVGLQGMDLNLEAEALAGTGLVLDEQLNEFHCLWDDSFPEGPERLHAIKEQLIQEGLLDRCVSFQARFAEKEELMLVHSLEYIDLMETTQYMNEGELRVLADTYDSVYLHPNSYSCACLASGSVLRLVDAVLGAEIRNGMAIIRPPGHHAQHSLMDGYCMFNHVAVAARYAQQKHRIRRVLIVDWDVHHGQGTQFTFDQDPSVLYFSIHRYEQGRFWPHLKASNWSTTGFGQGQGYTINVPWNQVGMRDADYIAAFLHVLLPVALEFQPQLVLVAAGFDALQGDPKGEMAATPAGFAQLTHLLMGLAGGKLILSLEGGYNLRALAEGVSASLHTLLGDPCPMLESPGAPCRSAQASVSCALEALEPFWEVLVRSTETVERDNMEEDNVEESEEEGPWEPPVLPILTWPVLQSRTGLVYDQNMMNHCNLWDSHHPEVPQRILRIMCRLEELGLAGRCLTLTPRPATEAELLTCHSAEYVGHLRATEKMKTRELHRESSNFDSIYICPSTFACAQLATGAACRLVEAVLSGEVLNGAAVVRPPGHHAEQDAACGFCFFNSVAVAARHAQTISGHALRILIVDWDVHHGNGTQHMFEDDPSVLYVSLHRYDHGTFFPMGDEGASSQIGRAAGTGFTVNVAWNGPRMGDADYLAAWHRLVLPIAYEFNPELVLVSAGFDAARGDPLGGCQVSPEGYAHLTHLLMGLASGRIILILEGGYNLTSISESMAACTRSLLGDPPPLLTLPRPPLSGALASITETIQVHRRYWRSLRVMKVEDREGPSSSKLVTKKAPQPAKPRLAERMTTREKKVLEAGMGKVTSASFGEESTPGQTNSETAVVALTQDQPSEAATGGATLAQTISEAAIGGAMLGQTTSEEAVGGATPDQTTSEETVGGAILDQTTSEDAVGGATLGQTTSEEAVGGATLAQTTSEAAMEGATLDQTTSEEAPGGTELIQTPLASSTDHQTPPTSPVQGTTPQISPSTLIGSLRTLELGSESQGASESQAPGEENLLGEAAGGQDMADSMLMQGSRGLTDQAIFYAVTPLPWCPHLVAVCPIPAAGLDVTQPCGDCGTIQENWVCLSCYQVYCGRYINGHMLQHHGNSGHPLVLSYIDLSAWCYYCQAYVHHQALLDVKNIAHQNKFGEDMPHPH

Structure (SMILES): O=C(NO)c1ccc(CNCc2ccccc2)cc1 [4a, 4-[(benzylamino)methyl]-benzhydroxamic acid]
- selectivity index (SI), hHDAC8 over drHDAC10 [1]: 94

Structure (SMILES): O=C(NO)c1ccc(CNCc2ccsc2)cc1 [4c, 4-{[(thiophen-3-ylmethyl)amino]methyl}benzhydroxamic acid]
- selectivity index (SI), hHDAC1 over drHDAC10 [2]: 417

Structure (SMILES): Cn1cc(CN2CCC(/C=C/C(=O)NO)CC2)c2ccccc21 [13b, (E)-3-{1-[(1-methylindol-3-yl)methyl]piperidin-4-yl} acrylhydroxamic acid]
- drHDAC10 inhibition (in words) [3]: Potent drHDAC10 inhibition
- GAPDH levels [4]: no change of GAPDH levels
- HDAC10 protein levels [4]: slightly increased levels of HDAC10
- accumulation of cyto-ID positive vesicles [5]: significantly induced the accumulation of cyto-ID positive vesicles
- expansion and acidification of the lysosomal compartment (LysoTracker DND-99) [6]: induced the expansion and acidification of the lysosomal compartment
- apoptosis (annexin-V-FITC / PI) [7]: did not trigger apoptosis
- tubulin acetylation compared to non-treated cells [8]: 36–80 fold
- accumulation of acetylated histone H3 ([9]; 2–15 μM): did not induce a significant accumulation of acetylated histone H3

Structure (SMILES): O=C(NO)c1ccc(CNCc2cccs2)cc1 [4b, 4-{[(thiophen-2-ylmethyl)amino]methyl}benzhydroxamic acid]
- selectivity index (SI), hHDAC1 over drHDAC10 [2]: 85
- selectivity index (SI), hHDAC8 over drHDAC10 [1]: 30

Structure (SMILES): O=C(/C=C/C1CCN(CCc2c[nH]c3ccccc23)CC1)NO [10b, (E)-3-{1-[2-(1H-indol-3-yl)ethyl]piperidin-4-yl}acrylhydroxamic acid]
- drHDAC10 inhibition (in words) [3]: Potent drHDAC10 inhibition
- IC50 [1]: 420 ± 55 nM

Structure (SMILES): O=C(/C=C/C1CCN(Cc2cccc(Cl)c2)CC1)NO [10d, (E)-3-[1-(3-chlorobenzyl)piperidin-4-yl]acrylhydroxamic acid]
- IC50 [1]: 2500 ± 260 nM

Structure (SMILES): O=C(/C=C/C1CCN(Cc2csc3ccccc23)CC1)NO [13a, (E)-3-{1-[benzothiophen-3-ylmethyl]piperidin-4-yl} acrylhydroxamic acid]
- drHDAC10 inhibition (in words) [3]: Potent drHDAC10 inhibition

Structure (SMILES): CN1CCN(Cc2ccc(C(=O)NO)cc2)CC1 [6b, 4-[(N-methylpiperazin-1-yl)methyl]benzhydroxamic acid]
- selectivity index (SI), hHDAC6 over drHDAC10 [10]: 9
- IC50 [1]: 2400 ± 210 nM

Structure (SMILES): O=C(NO)c1ccc(CN2CCCCC2)cc1 [6a, 4-(piperidin-1-ylmethyl)benzhydroxamic acid]
- drHDAC10 inhibition (in words) [3]: only weak HDAC10 inhibition

Structure (SMILES): O=C(/C=C/C1CCN(CCc2ccccc2)CC1)NO [10a, (E)-3-(1-phenethylpiperidin-4-yl)acrylhydroxamic acid]
- selectivity index (SI), hHDAC1 over drHDAC10 [2]: 1454
- selectivity index (SI), hHDAC6 over drHDAC10 [10]: 395
- IC50 [1]: 250 ± 50 nM
- selectivity index (SI), hHDAC8 over drHDAC10 [1]: 23

Structure (SMILES): O=C(/C=C/C1CCN(Cc2cccc3ccccc23)CC1)NO [10c, (E)-3-[1-(naphthalen-1-ylmethyl)piperidin-4-yl]acrylhydroxamic acid]
- drHDAC10 inhibition (in words) [3]: Potent drHDAC10 inhibition
- GAPDH levels [4]: no change of GAPDH levels
- HDAC10 protein levels [4]: slightly increased levels of HDAC10
- accumulation of cyto-ID positive vesicles [5]: significantly induced the accumulation of cyto-ID positive vesicles
- expansion and acidification of the lysosomal compartment (LysoTracker DND-99) [6]: induced the expansion and acidification of the lysosomal compartment
- apoptosis (annexin-V-FITC / PI) [7]: did not trigger apoptosis
- IC50 [1]: 470 ± 70 nM
- tubulin acetylation compared to non-treated cells [8]: 36–80 fold
- accumulation of acetylated histone H3 ([9]; 2–15 μM): did not induce a significant accumulation of acetylated histone H3

Structure (SMILES): Nc1ccccc1NC(=O)c1ccc(CNC(=O)OCc2cccnc2)cc1 [Entinostat (MS-275), entinostat, reference compound]
- accumulation of acetylated histone H3 ([9]; 5 μM, positive control): induced a highly significant accumulation of acetylated histone H3
